{
  "source": "patent US20250345253A1",
  "about": "(priority 2024, published 2025)",
  "experiment": "In vitro whitening and cleaning of stained test samples",
  "data": [
    {"smiles": "O=c1nc([O-])n(Cl)c(=O)n1Cl.[Na+]", "note": "[dichloroisocyanurate]", "values": [
      {"measurement": "Whitening and cleaning performance versus hydrogen peroxide solutions and salts", "setting": "compared with cleaning solutions of up to 25% hydrogen peroxide and hydrogen peroxide salts (sodium perborate)", "result": "outperformed both hydrogen peroxide cleaning solutions of up to 25% hydrogen peroxide and hydrogen peroxide salts (sodium perborate)"},
      {"measurement": "Whitening and cleaning of stained test samples", "setting": "compared with other cleaning formulations containing hydrogen peroxide", "result": "whitened and cleaned stained test samples better than other cleaning formulations containing hydrogen peroxide"}
    ]}
  ]
}
